In US9550792B2, “Polycyclic substituted pyrazole kinase activity inhibitors and use thereof” (priority 2013, dated 2017):
Values after ≈ are worked out from the molar mass of the structure shown. Like-named read-outs stand apart in the source and are kept apart here.

Tests used:
[1] = molecular target: T1, CDK2/A (Homo sapiens, UniProt P24941); test: Inhibitory activity to CDK2 (FRET); format: biochemical; conditions: for inhibition at 1 µM: read-out: CDK2 inhibition % (1 × 10^−6 mol/L)
T1 construct: purchased
Protocol: CDK2/A was purchased in the form of a kit or obtained through purification.
Procedures: CDK2/A is diluted to a suitable concentration with kinase diluent. The kinase reaction mixture contains CDK2/A, peptide substrate, HEPES (pH7.5), BRIJ-35, MgCl2 and EDTA. CDK2 phospho-peptide substrate is used as the control of 100% phosphorylation and ATP-free as the control of 0% phosphorylation. After 1 h, the diluted Development Reagent A is added into the reaction system. Then the reaction is allowed to proceed for 1 h and then quenched with Stop Reagent. […] The inhibitions of the tested compounds are calculated according to the formula.

[2] = molecular target: T2, Aurora A (Homo sapiens, UniProt O14965); test: Inhibitory activity to Aurora A (FRET); format: biochemical; conditions: for inhibition at 1 µM: read-out: Aurora A inhibition % (1 × 10^−6 mol/L)
T2 construct: purchased
T2 sequence (O14965 1-403): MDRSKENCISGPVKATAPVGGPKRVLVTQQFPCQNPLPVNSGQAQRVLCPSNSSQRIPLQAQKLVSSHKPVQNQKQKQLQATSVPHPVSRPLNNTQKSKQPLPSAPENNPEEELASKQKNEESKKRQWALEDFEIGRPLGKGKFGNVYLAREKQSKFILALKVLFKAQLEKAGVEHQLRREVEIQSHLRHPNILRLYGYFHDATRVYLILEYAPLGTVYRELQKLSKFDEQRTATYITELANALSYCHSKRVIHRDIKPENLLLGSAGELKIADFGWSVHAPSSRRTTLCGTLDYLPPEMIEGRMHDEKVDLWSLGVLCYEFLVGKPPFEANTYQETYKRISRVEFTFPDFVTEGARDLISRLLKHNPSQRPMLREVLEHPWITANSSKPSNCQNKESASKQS
Protocol: The inhibitory activities of the synthesized compounds for Aurora A is determined by fluorescence resonance energy transfer (FRET) and were compared with the positive control drug so as to screen the compounds with better activities. Aurora A was purchased in the form of a kit or obtained through purification. Procedures: Aurora A is diluted to a suitable concentration with kinase diluent. The kinase reaction mixture contains Aurora A, peptide substrate, HEPES (pH7.5), BRIJ-35, MgCl2 and EDTA. Aurora A phospho-peptide substrate is used as the control of 100% phosphorylation and ATP-free as the control of 0% phosphorylation. After 1 h, the diluted Development Reagent A is added into the reaction system. Then the reaction is allowed to proceed for 1 h and then quenched with Stop Reagent. The excitation wavelength is 400 nm and the fluorescence intensity is detected at 445 nm (coumarin) and 520 nm (fluorescein). The inhibitions of the tested compounds are calculated according to the formula.

[3] = test system: colon cancer cell line HCT116; test: Anti-tumor activity in vitro, MTT method; format: cell-based; conditions: MTT, 48 h, first cell table, read-out: HCT-116 (IC50/μM)
[4] = test system: liver cancer cell line 7721; test: Anti-tumor activity in vitro, MTT method; format: cell-based; conditions: MTT, 48 h; read-out: 7721 (IC50/μM)
[5] = test system: lung cancer cell H1299; test: Anti-tumor activity in vitro, MTT method; format: cell-based; conditions: MTT, 48 h, read-out: H1299 (IC50/μM)
[6] = test system: Candida albicans - ATCC 36082; test: Antifungal activity, modified broth microdilution; format: cell-based; conditions: 48 hours at 35, approximately 50% reduction of growth; for MIC: Candida albicans, ATCC36082
Protocol: (§1) The test microorganisms are maintained on Sabourahd Dextrose Agar slant at 4[…]. Singlet suspension of each microorganism is prepared by growing the yeast overnight at 27[…] on a rotating drum in yeast-nitrogen base broth (YNB) with amino acids (Difco, Detroit, Mich.), (pH 7.0) and 0.05 morpholine propanesulphonic acid (MOPS). […] The activity of the test compound is determined using a modified broth microdilution technique. […] Well 12 serves as a growth control. […] Inoculated plate is incubated for 48 hours at 35 °C. […] Minimal Cytolytic Concentration (MCC) is determined by subculturing all wells from the 96-well plate onto a Sabourahd Dextrose Agar (SDA) plate, incubating for 1-2 days at 35 °C, and then checking viability.

[7] = test system: Candida parapsilosis; test: Antifungal activity, modified broth microdilution; format: cell-based; conditions: 48 hours at 35, approximately 50% reduction of growth; for MIC: Lodderomyces parapsilosis
Protocol: as §1

[8] = test system: Candida tropicalis; test: Antifungal activity, modified broth microdilution; format: cell-based; conditions: 48 hours at 35, approximately 50% reduction of growth; for MIC: Candida tropicalis
Protocol: as §1

[9] = test system: Cryptococcus neoformans; test: Antifungal activity, modified broth microdilution; format: cell-based; conditions: 48 hours at 35, approximately 50% reduction of growth; for MIC: Cryptococcus neoformans
Protocol: as §1

[10] = test system: Phytophthora infestans; format: in vivo; parameters: concentration or dose not given beside the values

## O=C(Nc1c[nH]nc1-c1nc2ccc(CN3CCOCC3)cc2[nH]1)NC1CC1 [AT-9283, reference compound]
[1]
  inhibition at 1 µM: 39.7%
[2]
  inhibition at 1 µM: 77.4%
[3]; Homo sapiens, HCT-116
  IC50: 21.2 µM
[4]
  IC50: 61.2 µM
[5]; Homo sapiens, NCI-H1299
  IC50: 10.8 µM

## CN1CCN(Cc2ccc(NC(=O)c3n[nH]cc3Nc3ncnc4ccsc34)cc2)CC1 [Compound I-9, 4-(4-thieno[3,2-d]pyrimidinylamino)-N-(4-((4-methyl-1-piperazinyl)methyl)phenyl)-1H-3-pyrazole carboxamide]
[1]
  inhibition at 1 µM: 65%
[2]
  inhibition at 1 µM: 67.6%
[6]
  MIC: 12.7 µg/mL (≈ 28.4 µM)
[7]
  MIC: 8.7 µg/mL (≈ 19.4 µM)
[8]
  MIC: 10.7 µg/mL (≈ 23.9 µM)
[9]
  MIC: 15.6 µg/mL (≈ 34.7 µM)
[10]; 0.0001 (unit not given)
  Severity of tomato leaf blight: ++ (15-40% blight)
[10]; 0.001 (unit not given)
  Severity of tomato leaf blight: ++ (15-40% blight)
[10]; 0.01 (unit not given)
  Severity of tomato leaf blight: −
[10]; 0.1 (unit not given)
  Severity of tomato leaf blight: −
other
  melting point: > 280 °C

## Cc1c[nH]c2ncnc(Nc3c[nH]nc3C(=O)Nc3ccc(CN4CCN(C)CC4)cc3)c12 [Compound I-15, 4-(4-(5-methyl-7H-pyrrolo[2,3-d]pyrimidinyl)amino)-N-(4-((4-methyl-1-piperazinyl)methyl)phenyl)-1H-3-pyrazolecarboxamide]
[1]
  CDK2 inhibition % (1 × 10^−6 mol/L): 73.16%
[2]
  Aurora A inhibition % (1 × 10^−6 mol/L): 57.43%
[6]
  Candida albicans - ATCC 36082 MIC: 6.77 µg/mL
[7]
  Candida parapsilosis MIC: 5.78 µg/mL
[8]
  Candida tropicalis MIC: 5.00 µg/mL
[9]
  Cryptococcus neoformans MIC: 9.40 µg/mL
[10]; 0.0001 (unit not given)
  Severity of tomato leaf blight: ++ (15-40% blight)
[10]; 0.001 (unit not given)
  Severity of tomato leaf blight: ++ (15-40% blight)
[10]; 0.01 (unit not given)
  Severity of tomato leaf blight: + (0-15% blight)
[10]; 0.1 (unit not given)
  Severity of tomato leaf blight: −

## Cc1c[nH]c2ncnc(Nc3c[nH]nc3C(=O)Nc3ccc(CN4CCOCC4)cc3)c12 [Compound I-16, 4-(4-(5-methyl-7H-pyrrolo[2,3-d]pyrimidinyl)amino)-N-(4-((4-morpholinyl)methyl)phenyl)-1H-3-pyrazolecarboxamide]
[1]
  CDK2 inhibition % (1 × 10^−6 mol/L): 50.49%
[2]
  Aurora A inhibition % (1 × 10^−6 mol/L): 56.18%
[3]
  IC50: 32.3 µM
[4]
  IC50: 54.2 µM
[5]
  IC50: 89 µM

## CN1CCN(Cc2ccc(NC(=O)c3n[nH]cc3Nc3ncnc4cc[nH]c34)cc2)CC1 [Compound I-17, 4-(4-(5H-pyrrolo[3,2-d]pyrimidinyl)amino)-N-(4-((4-methyl-1-piperazinyl)methyl)phenyl)-1H-3-pyrazolecarboxamide]
[1]
  CDK2 inhibition % (1 × 10^−6 mol/L): 65.96%
[2]
  Aurora A inhibition % (1 × 10^−6 mol/L): 62.17%
[6]
  Candida albicans - ATCC 36082 MIC: 9.49 µg/mL
[7]
  Candida parapsilosis MIC: 2.76 µg/mL
[8]
  Candida tropicalis MIC: 4.70 µg/mL
[9]
  Cryptococcus neoformans MIC: 7.99 µg/mL
[10]; 0.0001 (unit not given)
  Severity of tomato leaf blight: +++ (40-60% blight)
[10]; 0.001 (unit not given)
  Severity of tomato leaf blight: ++ (15-40% blight)
[10]; 0.01 (unit not given)
  Severity of tomato leaf blight: + (0-15% blight)
[10]; 0.1 (unit not given)
  Severity of tomato leaf blight: −

## Cc1cc2ncnc(Nc3c[nH]nc3C(=O)Nc3ccc(CN4CCN(C)CC4)cc3)c2[nH]1 [Compound I-19, 4-(4-(6-methyl-5H-pyrrolo[3,2-d]pyrimidinyl)amino)-N-(4-((4-methyl-1-piperazinyl)methyl)phenyl)-1H-3-pyrazolecarboxamide]
[1]
  CDK2 inhibition % (1 × 10^−6 mol/L): 65.01%
[2]
  Aurora A inhibition % (1 × 10^−6 mol/L): 70.28%
[6]
  Candida albicans - ATCC 36082 MIC: 11.80 µg/mL
[7]
  Candida parapsilosis MIC: 6.45 µg/mL
[8]
  Candida tropicalis MIC: 8.58 µg/mL
[9]
  Cryptococcus neoformans MIC: 12.86 µg/mL
[10]; 0.0001 (unit not given)
  Severity of tomato leaf blight: ++++ (>60% blight)
[10]; 0.001 (unit not given)
  Severity of tomato leaf blight: ++ (15-40% blight)
[10]; 0.01 (unit not given)
  Severity of tomato leaf blight: + (0-15% blight)
[10]; 0.1 (unit not given)
  Severity of tomato leaf blight: −

## CN1CCN(Cc2ccc(NC(=O)c3n[nH]cc3Nc3ncnc4ccoc34)cc2)CC1 [Compound I-23, 4-(4-furo[3,2-d]pyrimidinylamino)-N-(4-((4-methyl-1-piperazinyl)methyl)phenyl)-1H-3-pyrazolecarboxamide]
[1]
  inhibition at 1 µM: 60.6%
[2]
  inhibition at 1 µM: 59.7%
[6]
  MIC: 2.92 µg/mL (≈ 6.75 µM)
[7]
  MIC: 4.32 µg/mL (≈ 9.99 µM)
[8]
  MIC: 3.24 µg/mL (≈ 7.49 µM)
[9]
  MIC: 5.82 µg/mL (≈ 13.5 µM)
[10]; 0.0001 (unit not given)
  Severity of tomato leaf blight: +++ (40-60% blight)
[10]; 0.001 (unit not given)
  Severity of tomato leaf blight: ++ (15-40% blight)
[10]; 0.01 (unit not given)
  Severity of tomato leaf blight: −
[10]; 0.1 (unit not given)
  Severity of tomato leaf blight: −
other
  melting point: 277 to 279 °C

## CN1CCN(Cc2ccc(NC(=O)c3n[nH]cc3Nc3nccc4sccc34)cc2)CC1 [Compound I-25, 4-(4-thieno[3,2-c]pyridylamino)-N-(4-((4-methyl-1-piperazinyl)methyl)phenyl)-1H-3-pyrazolecarboxamide]
[1]
  inhibition at 1 µM: 59.5%
[2]
  inhibition at 1 µM: 59.7%
[6]
  MIC: 3.38 µg/mL (≈ 7.55 µM)
[7]
  MIC: 0.96 µg/mL (≈ 2.14 µM)
[8]
  MIC: 1.08 µg/mL (≈ 2.41 µM)
[9]
  MIC: 2.83 µg/mL (≈ 6.32 µM)
[10]; 0.0001 (unit not given)
  Severity of tomato leaf blight: ++ (15-40% blight)
[10]; 0.001 (unit not given)
  Severity of tomato leaf blight: ++ (15-40% blight)
[10]; 0.01 (unit not given)
  Severity of tomato leaf blight: + (0-15% blight)
[10]; 0.1 (unit not given)
  Severity of tomato leaf blight: −
other
  melting point: 268 to 270 °C

## CN1CCN(Cc2ccc(NC(=O)c3n[nH]cc3Nc3nccc4ccoc34)cc2)CC1 [Compound I-37, 4-(7-furo[2,3-c]pyridylamino)-N-(4-((4-methyl-1-piperazinyl)methyl)phenyl)-1H-3-pyrazolecarboxamide]
[1]
  inhibition at 1 µM: 72.2%
[2]
  inhibition at 1 µM: 59.6%
other
  melting point: 258 to 261 °C

## O=C(Nc1ccc(CN2CCOCC2)cc1)c1n[nH]cc1Nc1nccc2ccoc12 [Compound I-38, 4-(7-furo[2,3-c]pyridylamino)-N-(4-((4-morpholinyl)methyl)phenyl)-1H-3-pyrazolecarboxamide]
[1]
  inhibition at 1 µM: 64.8%
[2]
  inhibition at 1 µM: 51%
other
  melting point: 268 to 272 °C

## O=C(Nc1ccc(CN2CCOCC2)cc1)c1n[nH]cc1Nc1ccnc2ccoc12 [Compound I-40, 4-(7-furo[3,2-b]pyridylamino)-N-(4-((4-morpholinyl)methyl)phenyl)-1H-3-pyrazolecarboxamide]
[1]
  inhibition at 1 µM: 20.2%
[2]
  inhibition at 1 µM: 40.7%
other
  melting point: 275 to 278 °C

## CN1CCN(Cc2ccc(NC(=O)c3n[nH]cc3Nc3ccnc4occc34)cc2)CC1 [Compound I-41, 4-(4-furo[2,3-b]pyridylamino)-N-(4-((4-methyl-1-piperazinyl)methyl)phenyl)-1H-3-pyrazolecarboxamide]
[1]
  inhibition at 1 µM: 56.2%
[2]
  inhibition at 1 µM: 42.6%
other
  melting point: 273 to 276 °C

## O=C(Nc1ccc(CN2CCOCC2)cc1)c1n[nH]cc1Nc1ccnc2occc12 [Compound I-42, 4-(4-furo[2,3-b]pyridylamino)-N-(4-((4-morpholinyl)methyl)phenyl)-1H-3-pyrazolecarboxamide]
[1]
  inhibition at 1 µM: 54.2%
[2]
  inhibition at 1 µM: 51.8%
other
  melting point: 269 to 271 °C
